Experimental data published in patent publication US20140094505A1, “BIOMARKERS FOR ASSESSING TREATMENT OF SIALIC ACID DEFICIENCY DISEASES AND CONDITIONS” (Ultragenyx Pharmaceutical Inc., priority 2012, published 2014).

Tested on: serum biomarkers (SAT biomarkers)
Test: Phase 2: change (delta) in serum biomarker levels between week 0 and week 24 per dosage group (placebo, 3 g/day, 6 g/day), Human Discovery MAP250+ v2.0
Assay type: in vivo
Set-up: key to overall trend, Epithelial-Derived Neutrophil-Activating Protein 78 (ENA-78) / overall trend, Lactoylglutathione lyase (LGL) / overall trend, Latency-Associated Peptide of Transforming Growth Factor beta 1 (LAP TGF-b1) / overall trend, Macrophage Colony-Stimulating Factor 1 (M-CSF) / overall trend, Matrix Metalloproteinase-9, total (MMP-9, total) / overall trend, Myoglobin / overall trend, Neuronal Cell Adhesion Molecule (Nr-CAM) / overall trend, Plasminogen Activator Inhibitor 1 (PAI-1) / overall trend, Receptor tyrosine-protein kinase erbB-3 (ErbB3) / overall trend, Vascular Endothelial Growth Factor C (VEGF-C) / overall trend, Chromogranin-A (CgA): normalization: level moved toward normal level and the change in 6 g/day group was larger compared to placebo; stabilization: level might still move away from normal level but at a slower rate in 6 g/day group compared to placebo
Conditions: HIBM patients
Procedure: Forty-seven (47) HIBM patient serum samples collected at week 24 from phase 2 study were tested using the Human Discovery MAP250+ v2.0 quantitative immunoassay system developed by Myriad RBM. The results were compared to the serum samples of the same 47 HIBM patients collected at week 0 (baseline) which were conducted earlier with the same immunoassay system.
Patients were unblinded and the results were organized into the 3 assigned dosage groups, placebo (n=14), 3 g/day (n=17) and 6 g/day (n=14). The major focus of the analysis was 1) to assess changes (delta, Δ) in levels of analytes between baseline and week 24 in each dosage group, 2) whether the changes correlate to dosage levels.
Analytes were excluded from analysis if […] of the HIBM patient samples were below least detectable dose (LDD). Within each dosage group, individual values with >5× difference to the mean of the dosage group were considered as outliers and thus removed from analysis.
Upon treatment, levels of these analytes show an overall trend of either stabilization or normalization. […] For example, LAP TGF-b1 is an example of biomarker showing trend of normalization when the baseline level in HIBM patients is higher than normal controls, see FIG. 2. NCAM is another example of biomarker showing trend of normalization when the baseline level in HIBM patients is lower than normal controls, see FIG. 3.

With `CC(=O)N[C@H]1[C@H]([C@H](O)[C@H](O)CO)OC(O)(C(=O)O)C[C@@H]1O` (stereo partly drawn) [Sialic Acid, 5-N-acetylneuraminic acid] the “average Δweek 0-24 (3 g/day), Chromogranin-A (CgA)” value (3 g/day, week 0 to week 24) was 64.00 ng/mL, the “average Δweek 0-24 (3 g/day), Epithelial-Derived Neutrophil-Activating Protein 78 (ENA-78)” value (3 g/day, week 0 to week 24) was -0.26 ng/mL and the “average Δweek 0-24 (3 g/day), Lactoylglutathione lyase (LGL)” value (3 g/day, week 0 to week 24) was 0.25 ng/mL. For the same compound, the “average Δweek 0-24 (3 g/day), Latency-Associated Peptide of Transforming Growth Factor beta 1 (LAP TGF-b1)” value (3 g/day, week 0 to week 24) was -0.44 ng/mL, the “average Δweek 0-24 (3 g/day), Macrophage Colony-Stimulating Factor 1 (M-CSF)” value (3 g/day, week 0 to week 24) was 0.10 ng/mL and the “average Δweek 0-24 (3 g/day), Matrix Metalloproteinase-9, total (MMP-9, total)” value (3 g/day, week 0 to week 24) was 449.18 ng/mL. The “average Δweek 0-24 (3 g/day), Myoglobin” value (3 g/day, week 0 to week 24) was -48.88 ng/mL, the “average Δweek 0-24 (3 g/day), Neuronal Cell Adhesion Molecule (Nr-CAM)” value (3 g/day, week 0 to week 24) was -0.07 ng/mL and the “average Δweek 0-24 (3 g/day), Plasminogen Activator Inhibitor 1 (PAI-1)” value (3 g/day, week 0 to week 24) was 0.82 ng/mL. The “average Δweek 0-24 (3 g/day), Receptor tyrosine-protein kinase erbB-3 (ErbB3)” value (3 g/day, week 0 to week 24) was -0.28 ng/mL, the “average Δweek 0-24 (3 g/day), Vascular Endothelial Growth Factor C (VEGF-C)” value (3 g/day, week 0 to week 24) was 1.35 ng/mL and the “overall trend, Chromogranin-A (CgA)” value (6 g/day vs placebo, week 24) was “stabilization”. For the same compound, the “overall trend, Epithelial-Derived Neutrophil-Activating Protein 78 (ENA-78)” value (6 g/day vs placebo, week 24) was “normalization”, the “overall trend, Lactoylglutathione lyase (LGL)” value (6 g/day vs placebo, week 24) was “normalization” and the “overall trend, Latency-Associated Peptide of Transforming Growth Factor beta 1 (LAP TGF-b1)” value (6 g/day vs placebo, week 24) was “normalization”. The “overall trend, Macrophage Colony-Stimulating Factor 1 (M-CSF)” value (6 g/day vs placebo, week 24) was “stabilization”, the “overall trend, Matrix Metalloproteinase-9, total (MMP-9, total)” value (6 g/day vs placebo, week 24) was “stabilization” and the “overall trend, Myoglobin” value (6 g/day vs placebo, week 24) was “normalization”. The “overall trend, Neuronal Cell Adhesion Molecule (Nr-CAM)” value (6 g/day vs placebo, week 24) was “normalization”, the “overall trend, Plasminogen Activator Inhibitor 1 (PAI-1)” value (6 g/day vs placebo, week 24) was “normalization” and the “overall trend, Receptor tyrosine-protein kinase erbB-3 (ErbB3)” value (6 g/day vs placebo, week 24) was “stabilization”. For the same compound, the “overall trend, Vascular Endothelial Growth Factor C (VEGF-C)” value (6 g/day vs placebo, week 24) was “stabilization”, the “average Δweek 0-24 (6 g/day), Chromogranin-A (CgA)” value (6 g/day, week 0 to week 24) was 5.83 ng/mL and the “average Δweek 0-24 (6 g/day), Epithelial-Derived Neutrophil-Activating Protein 78 (ENA-78)” value (6 g/day, week 0 to week 24) was -0.42 ng/mL. For the same compound, the “average Δweek 0-24 (6 g/day), Lactoylglutathione lyase (LGL)” value (6 g/day, week 0 to week 24) was -8.27 ng/mL, the “average Δweek 0-24 (6 g/day), Latency-Associated Peptide of Transforming Growth Factor beta 1 (LAP TGF-b1)” value (6 g/day, week 0 to week 24) was -1.00 ng/mL and the “average Δweek 0-24 (6 g/day), Macrophage Colony-Stimulating Factor 1 (M-CSF)” value (6 g/day, week 0 to week 24) was 0.02 ng/mL. For the same compound, the “average Δweek 0-24 (6 g/day), Matrix Metalloproteinase-9, total (MMP-9, total)” value (6 g/day, week 0 to week 24) was 444.64 ng/mL, the “average Δweek 0-24 (6 g/day), Myoglobin” value (6 g/day, week 0 to week 24) was -38.00 ng/mL and the “average Δweek 0-24 (6 g/day), Neuronal Cell Adhesion Molecule (Nr-CAM)” value (6 g/day, week 0 to week 24) was 0.02 ng/mL. For the same compound, the “average Δweek 0-24 (6 g/day), Plasminogen Activator Inhibitor 1 (PAI-1)” value (6 g/day, week 0 to week 24) was -0.36 ng/mL, the “average Δweek 0-24 (6 g/day), Receptor tyrosine-protein kinase erbB-3 (ErbB3)” value (6 g/day, week 0 to week 24) was -0.16 ng/mL and the “average Δweek 0-24 (6 g/day), Vascular Endothelial Growth Factor C (VEGF-C)” value (6 g/day, week 0 to week 24) was 6.43 ng/mL.
